{"source": "patent US5443827A", "about": "“Fibrin-targeted inhibitors of thrombin” (President and Fellows of Harvard College, priority 1993, dated 1995)", "key": {"[1]": {"system": "fibrin formation on the surface of a plasma clot", "experiment": "Inhibition of thrombus growth in a fibrinogen solution", "assay_type": "biochemical, human", "conditions": "for 3 h; FIG. 4A", "experimental": "The method of Runge (Runge et al., Biochemistry 27:1153-1157, 1988, herein incorporated by reference) was followed, with the following modifications. Fresh-frozen plasma obtained from 5 donors was pooled, aliquoted and refrozen. Before each experiment, plasma was ultracentrifuged at 30,000 rpm for 60 min in a Beckmann SW 40 rotor in order to obtain platelet-free plasma (platelet count less than 1,000 platelets/μl). Immediately before each experiment, the anti-thrombin activities of hirudin and hirudin conjugate were calibrated using the S-2238 assay (i.e., the inhibition of thrombin peptidase activity by hirudin and its conjugates was determined, and appropriate dilutions were made so that the inhibition of thrombin peptidase activity was identical for each sample). […] The radioactivity level of each was then determined and only clots within 5% of the mean value were used for experiments.\n(§1) After counting, clots were resuspended in 100 μl TBS (0.1M Tris, 0.1M NaCl, pH 7.4). […] At predetermined intervals, clots were removed from the test tube, washed three times with 2 ml 0.15M NaCl and assayed for radioactivity. Clots incubated without thrombin inhibitor (NaCl-controls) often could not be quantitatively removed from the incubation vial because of complete clotting of the assay mixture. […]"}, "[2]": {"system": "fibrin deposition on the surface of a clot suspended in human plasma", "experiment": "Inhibition of thrombus growth in human plasma", "assay_type": "biochemical", "experimental": "The method of Runge (Runge et al., Biochemistry 27:1153-1157, 1988, herein incorporated by reference) was followed, with the following modifications. Fresh-frozen plasma obtained from 5 donors was pooled, aliquoted and refrozen. Before each experiment, plasma was ultracentrifuged at 30,000 rpm for 60 min in a Beckmann SW 40 rotor in order to obtain platelet-free plasma (platelet count less than 1,000 platelets/μl). Immediately before each experiment, the anti-thrombin activities of hirudin and hirudin conjugate were calibrated using the S-2238 assay (i.e., the inhibition of thrombin peptidase activity by hirudin and its conjugates was determined, and appropriate dilutions were made so that the inhibition of thrombin peptidase activity was identical for each sample). Platelet-free plasma clots were made by adding to plasma, in the following sequence: ^125 I-labelled human fibrinogen (20,000 cpm/ml plasma), 0.5M CaCl2 (final concentration 0.05M) and thrombin (0.5 NIH units/ml plasma). Immediately after the addition of thrombin, the solution was drawn into silastic tubing (i.d. 4 mm) and allowed to clot for 2 h at 37 ° C. The tubing was then cut into 1.8 cm sections yielding clots of approximately 0.2 ml. The clots were removed from the tubing, and each was placed in a plastic vial and washed three times with 2 ml 0.15M NaCl. The radioactivity level of each was then determined and only clots within 5% of the mean value were used for experiments.\nas §1, with “7.4). Experiments were initiated by the addition of 100 μl hirudin or conjugate solution containing defined amounts of anti-thrombin activity.” for “7.4).”"}, "[3]": {"target": "T1, thrombin (Homo sapiens, UniProt P00734)", "experiment": "β-Peptide assay (thrombin inhibition as a function of binding to immobilized β-peptide)", "assay_type": "biochemical", "conditions": "fitted parameter ± SD", "experimental": "96-well microtiter plates were coated overnight at 4° C. with β-peptide. 100 μl coating buffer (20 mM Tris, 50 mMNaCl, 1 mM CaCl2, 1 mM MgC2, pH 7.4) containing 0.005 mg β-peptide were applied to each well. After coating, the microtiter plate was first washed 5 times with coating buffer supplemented with 0.05% Tween 20 and then three times with water. Free binding sites were blocked overnight at 4° C. by the addition of 250 μl bovine serum albumin (2% w/v in coating buffer) per well. […]\nAfter washing 7 times with modified coating buffer (20 mM Tris, 0.5 M NaCl2, 1 mM CaCl2, 1 mM MgCl2, 0.2% Tween 20, pH 7.4) and three times with water, 100 μl of assay buffer (20 mMNaHPO4, 0.15M NaCl, 0.1% BSA, pH 7.4) were applied per well and 20 μl (1.25 U/ml) of thrombin solution were allowed to incubate for 1 h at room temperature. Then 50 μl of chromogenic substrate (S-2238 at 0.83 mg/ml) were applied and after 20 minutes, the reaction was stopped by addition of 50 μl of 20% acetic acid, and the resulting absorption read at 405 nm. Hirudin activity was detected as inhibition of thrombin activity and was expressed as % inhibition of total thrombin activity applied. […]"}, "[4]": {"target": "T1, thrombin", "conditions": "r-Hirudin as obtained from Knoll AG; cited from earlier work"}, "[5]": {"target": "T1, thrombin", "experiment": "Fibrin-Sepharose assay (thrombin inhibition as a function of binding to immobilized fibrin)", "assay_type": "biochemical", "conditions": "800 units applied", "experimental": "This assay is as described by Bode et al., J. Biol. Chem. 262:10819-10823, 1987, herein incorporated by reference, with the following modifications. For the purposes of assaying targeted anti-thrombin activity, trace labeling of fibrin-monomer is not necessary. 200 μl fibrin-Sepharose were incubated for 2.5 h at room temperature with defined amounts (by the S-2238 assay) of hirudin or hirudin-59D8-conjugate (hirudin-59D8-IgG or, alternatively, hirudin-59D8-Fab') in 100 μl of buffer. After washing the fibrin-Sepharose three times with 3 ml 0.15M NaCl, 200 μl S-2238 assay buffer and 40 μl (0.05 U) thrombin solution (1.25 U/ml) were added and incubated for 1 h at room temperature. Subsequently 100 μl of chromogenic substrate S-2238 were added, and the reaction was stopped after 25 min by addition of 100 μl 20% acetic acid. After centrifugation (5 min, 1,000×g), absorption of the supernatant was read at 405 nm. Hirudin activity was again detected as inhibition of thrombin activity and was expressed as % of total thrombin activity applied. […]"}}, "data": [{"substance": "hirudin", "values": [{"measurement": "concentration giving complete inhibition of fibrin formation", "setting": "[1]", "value": 80, "unit": "ATU/ml"}, {"measurement": "fibrin deposition lower than NaCl control", "setting": "[2]; at 10 ATU/ml, FIG. 6A", "value": 17, "unit": "µg"}, {"measurement": "fibrin deposition lower than NaCl control", "setting": "[2]; at 100 ATU/ml, p=0.0001", "value": 112, "unit": "µg"}, {"measurement": "fibrin deposition compared with the mixture at 9 ATU/ml", "setting": "[2]; hirudin at 44 ATU/ml, p=0,003, FIG. 7", "value": "lower"}, {"measurement": "B1, ultimate thrombin inhibition", "setting": "[3]; FIG. 2A", "value": "4.3±0.5", "unit": "%"}, {"measurement": "ultimate inhibition (B1)", "setting": "[3]; FIG. 2B", "value": 0, "unit": "%"}, {"measurement": "specific activity", "setting": "[4]", "value": "17,000 anti-thrombin units (ATU)/mg"}, {"measurement": "thrombin inhibition", "setting": "[5]", "value": 32.3, "unit": "%"}]}]}
